# Reference: ChEMBL document CHEMBL1201862, “PubChem BioAssay data set” (2004)
#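 Five concentrations, 48 hours, 96-well plates. GI50 = concentration required for 50% inhibition of growth.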 Calls of active or inactive are those of the source. Rule as the data show it: active = GI50 up to about 1.1 µM and inactive = higher.
# Assays:
# Test in all cases: inhibition of tumour cell growth, NCI panel, 48 h
# 786-0 = system: 786-0
# A498 = system: A498
# A549 = system: A549
# ACHN = system: ACHN
# BT-549 = system: BT-549
# CAKI-1 = system: CAKI-1
# CCRF-CEM = system: CCRF-CEM
# COLO 205 = system: COLO 205
# DU-145 = system: DU-145
# EKVX = system: EKVX
# HCC 2998 = system: HCC 2998
# HCT-116 = system: HCT-116
# HCT-15 = system: HCT-15
# HL-60 = system: HL-60
# HOP-62 = system: HOP-62
# HT-29 = system: HT-29
# Hs-578T = system: Hs-578T
# IGROV-1 = system: IGROV-1
# K562 = system: K562
# KM12 = system: KM12
# LOX IMVI = system: LOX IMVI
# M14 = system: M14
# MCF7 = system: MCF7
# MDA-MB-231 = system: MDA-MB-231
# MDA-MB-435 = system: MDA-MB-435
# MDA-N = system: MDA-N
# MOLT-4 = system: MOLT-4
# Malme-3M = system: Malme-3M
# NCI-H226 = system: NCI-H226
# NCI-H23 = system: NCI-H23
# NCI-H460 = system: NCI-H460
# NCI/ADR-RES = system: NCI/ADR-RES
# OVCAR-3 = system: OVCAR-3
# OVCAR-4 = system: OVCAR-4
# OVCAR-5 = system: OVCAR-5
# OVCAR-8 = system: OVCAR-8
# PC-3 = system: PC-3
# RPMI-8226 = system: RPMI-8226
# RXF 393 = system: RXF 393
# SF-268 = system: SF-268
# SF-295 = system: SF-295
# SF-539 = system: SF-539
# SK-MEL-28 = system: SK-MEL-28
# SK-MEL-2 = system: SK-MEL-2
# SK-MEL-5 = system: SK-MEL-5
# SK-OV-3 = system: SK-OV-3
# SN12C = system: SN12C
# SNB-19 = system: SNB-19
# SNB-75 = system: SNB-75
# SR = system: SR
# SW-620 = system: SW-620
# T47D = system: T47D
# TK-10 = system: TK-10
# U-251 = system: U-251
# UACC-257 = system: UACC-257
# UACC-62 = system: UACC-62
# UO-31 = system: UO-31
# NCI-H522 = system: NCI-H522
compound,measurement,setting,value
CO[C@]1(c2ccc([N+](=O)[O-])cc2)Oc2ccccc2C(=O)[C@@]1(Nc1ccc(C=O)cc1)OC,GI50,786-0,> 10 µM (inactive)
same,GI50,A498,> 10 µM (inactive)
same,GI50,A549,> 10 µM (inactive)
same,GI50,ACHN,> 10 µM (inactive)
same,GI50,BT-549,> 10 µM (inactive)
same,GI50,CAKI-1,> 10 µM (inactive)
same,GI50,CCRF-CEM,> 10 µM (inactive)
same,GI50,COLO 205,> 10 µM (inactive)
same,GI50,DU-145,> 10 µM (inactive)
same,GI50,EKVX,> 10 µM (inactive)
same,GI50,HCC 2998,> 10 µM (inactive)
same,GI50,HCT-116,> 10 µM (inactive)
same,GI50,HCT-15,> 10 µM
same,GI50,HL-60,> 10 µM (inactive)
same,GI50,HOP-62,> 10 µM (inactive)
same,GI50,HT-29,> 10 µM (inactive)
same,GI50,Hs-578T,> 10 µM (inactive)
same,GI50,IGROV-1,> 10 µM (inactive)
same,GI50,K562,> 10 µM (inactive)
same,GI50,KM12,> 10 µM (inactive)
same,GI50,LOX IMVI,> 10 µM (inactive)
same,GI50,M14,> 10 µM (inactive)
same,GI50,MCF7,> 10 µM (inactive)
same,GI50,MDA-MB-231,> 10 µM (inactive)
same,GI50,MDA-MB-435,> 10 µM (inactive)
same,GI50,MDA-N,> 10 µM (inactive)
same,GI50,MOLT-4,> 10 µM (inactive)
same,GI50,Malme-3M,> 10 µM (inactive)
same,GI50,NCI-H226,> 10 µM (inactive)
same,GI50,NCI-H23,> 10 µM (inactive)
same,GI50,NCI-H460,> 10 µM (inactive)
same,GI50,NCI/ADR-RES,> 10 µM (inactive)
same,GI50,OVCAR-3,> 10 µM (inactive)
same,GI50,OVCAR-4,> 10 µM (inactive)
same,GI50,OVCAR-5,> 10 µM (inactive)
same,GI50,OVCAR-8,> 10 µM (inactive)
same,GI50,PC-3,> 10 µM (inactive)
same,GI50,RPMI-8226,> 10 µM (inactive)
same,GI50,RXF 393,> 10 µM (inactive)
same,GI50,SF-268,> 10 µM (inactive)
same,GI50,SF-295,> 10 µM (inactive)
same,GI50,SF-539,> 10 µM (inactive)
same,GI50,SK-MEL-28,> 10 µM (inactive)
same,GI50,SK-MEL-2,> 10 µM (inactive)
same,GI50,SK-MEL-5,> 10 µM (inactive)
same,GI50,SK-OV-3,> 10 µM (inactive)
same,GI50,SN12C,> 10 µM (inactive)
same,GI50,SNB-19,> 10 µM (inactive)
same,GI50,SNB-75,> 10 µM (inactive)
same,GI50,SR,> 10 µM (inactive)
same,GI50,SW-620,> 10 µM (inactive)
same,GI50,T47D,> 10 µM (inactive)
same,GI50,TK-10,> 10 µM (inactive)
same,GI50,U-251,> 10 µM (inactive)
same,GI50,UACC-257,> 10 µM (inactive)
same,GI50,UACC-62,> 10 µM (inactive)
same,GI50,UO-31,> 10 µM (inactive)
CSc1c(C(=O)Nc2ccc(Cl)cc2)c(N)n(N)c(=O)c1C#N,GI50,786-0,> 100 µM (inactive)
same,GI50,A498,36 µM (inactive)
same,GI50,A549,> 100 µM (inactive)
same,GI50,BT-549,> 100 µM (inactive)
same,GI50,CAKI-1,34.2 µM (inactive)
same,GI50,CCRF-CEM,42.4 µM (inactive)
same,GI50,COLO 205,> 100 µM (inactive)
same,GI50,DU-145,> 100 µM (inactive)
same,GI50,EKVX,> 100 µM (inactive)
same,GI50,HCC 2998,54.1 µM (inactive)
same,GI50,HCT-116,32.6 µM (inactive)
same,GI50,HCT-15,77.4 µM
same,GI50,HL-60,78.7 µM (inactive)
same,GI50,HT-29,> 100 µM (inactive)
same,GI50,Hs-578T,> 100 µM (inactive)
same,GI50,K562,46.6 µM (inactive)
same,GI50,KM12,45.9 µM (inactive)
same,GI50,LOX IMVI,31.8 µM (inactive)
same,GI50,M14,51.6 µM (inactive)
same,GI50,MCF7,75.3 µM (inactive)
same,GI50,MDA-MB-231,> 100 µM (inactive)
same,GI50,MDA-MB-435,> 100 µM (inactive)
same,GI50,MDA-N,> 100 µM (inactive)
same,GI50,MOLT-4,76.9 µM (inactive)
same,GI50,Malme-3M,> 100 µM (inactive)
same,GI50,NCI-H226,89.7 µM (inactive)
same,GI50,NCI-H23,61.5 µM (inactive)
same,GI50,NCI-H460,> 100 µM (inactive)
same,GI50,NCI-H522,25.7 µM (inactive)
same,GI50,NCI/ADR-RES,58.1 µM (inactive)
same,GI50,OVCAR-3,48.8 µM (inactive)
same,GI50,OVCAR-4,68.5 µM (inactive)
same,GI50,OVCAR-5,58.9 µM (inactive)
same,GI50,OVCAR-8,55.2 µM (inactive)
same,GI50,PC-3,79.8 µM (inactive)
same,GI50,RPMI-8226,57.4 µM (inactive)
same,GI50,RXF 393,> 100 µM (inactive)
same,GI50,SF-268,> 100 µM (inactive)
same,GI50,SF-539,> 100 µM (inactive)
same,GI50,SK-MEL-28,> 100 µM (inactive)
same,GI50,SK-MEL-2,> 100 µM (inactive)
same,GI50,SK-MEL-5,> 100 µM (inactive)
same,GI50,SK-OV-3,> 100 µM (inactive)
same,GI50,SN12C,> 100 µM (inactive)
same,GI50,SNB-19,> 100 µM (inactive)
same,GI50,SNB-75,> 100 µM (inactive)
same,GI50,SR,> 100 µM (inactive)
same,GI50,SW-620,95.5 µM (inactive)
same,GI50,T47D,31.3 µM (inactive)
same,GI50,TK-10,> 100 µM (inactive)
same,GI50,U-251,> 100 µM (inactive)
same,GI50,UACC-257,> 100 µM (inactive)
same,GI50,UACC-62,24.5 µM (inactive)
same,GI50,UO-31,31.6 µM (inactive)
